In the case of `*C(CC(C)C)C(=O)Nc1ccc(Oc2ccc(NC(=O)Nc3ccc(Cc4ccc(NC(=O)Nc5ccc(Oc6ccc(NC(=O)C(CC(C)C)n7c(=O)c8cc9c(=O)n(*)c(=O)c9cc8c7=O)cc6)cc5)cc4)cc3)cc2)cc1` (repeat unit), the glass transition temperature worked out at 181.40 °C. The value for `*CC#CC#CCOc1ccc(C(=O)OCCN(CCOC(=O)c2ccc(O*)cc2)c2ccc(/N=N/c3ccc(/N=N/c4cc(C)c([N+](=O)[O-])c(C)c4)cc3)cc2)cc1` (repeat unit) was 115.00 °C; that for `*CC#CC#CCOc1ccc(C(=O)OCCN(CCOC(=O)c2ccc(O*)cc2)c2ccc(/N=N/c3ccc(C#N)cc3)cc2)cc1` (repeat unit) was 121.00 °C. In the case of `*CCC(=O)Nc1ccc(Oc2cccc(NC(=O)CCN3C(=O)c4ccc(C(=O)c5ccc6c(c5)C(=O)N(*)C6=O)cc4C3=O)c2)cc1` (repeat unit) it was 224.00 °C. The value for `*CCC(C)CC(=O)O*` (repeat unit) was -71.50 °C; that for `*CCC(C)CC(C)(C)CNC(=O)c1ccc(C(=O)N*)cc1` (repeat unit) was 147.00 °C; that for `*CCC(C)CCOC(=O)CCCCC(=O)O*` (repeat unit) was -78.60 °C. The compound `*CCC1CC(=O)N(*)C1=O` (repeat unit) showed a glass transition temperature of 131.00 °C.

On to `*CCCC(=O)N*` (repeat unit), for which the glass transition temperature was 62.80 °C. In the case of `*CCCC(=O)Nc1ccc(Cc2ccc(NC(=O)CCCN3C(=O)c4ccc(C(=O)c5ccc6c(c5)C(=O)N(*)C6=O)cc4C3=O)cc2)cc1` (repeat unit) it was 195.00 °C.

Turning to `*CCCC(=O)O*` (repeat unit), the glass transition temperature stood at 1.50 °C. The value for `*CCCC(=O)Oc1ccc(OC(=O)c2ccc3c(c2)C(=O)N(*)C3=O)cc1` (repeat unit) was 132.00 °C; that for `*CCCC(C)(C)CCCNC(=O)c1ccc(C(=O)N*)cc1` (repeat unit) was 152.00 °C. Consider `*CCCC(C)(C)CNC(=O)c1cccc(C(=O)N*)c1` (repeat unit), for which the glass transition temperature was found to be 153.00 °C.

The compound `*CCCC(C)CN1C(=O)c2ccc(C(=O)Oc3ccc(-c4ccc(OC(=O)c5ccc6c(c5)C(=O)N(*)C6=O)cc4)cc3)cc2C1=O` (repeat unit) had a glass transition temperature of 155.00 °C. The value for `*CCCC1CC(=O)N(*)C(=O)C1` (repeat unit) was 90.00 °C.

`*CCCCCC(=O)Nc1ccc(Oc2ccc(NC(=O)CCCCCN3C(=O)c4ccc(C(=O)c5ccc6c(c5)C(=O)N(*)C6=O)cc4C3=O)cc2)cc1` (repeat unit): the glass transition temperature turned out to be 195.00 °C. In the case of `*CCCCCC(=O)Nc1ccc(Oc2cccc(NC(=O)CCCCCN3C(=O)c4ccc(C(=O)c5ccc6c(c5)C(=O)N(*)C6=O)cc4C3=O)c2)cc1` (repeat unit) it was 170.00 °C; in that of `*CCCCCCOc1ccc(NC(=O)c2cc(C(=O)Nc3ccc(O*)cc3)cc(C(C)(C)C)c2)cc1` (repeat unit), 166.00 °C; in that of `*CCCCCCSS*` (repeat unit), -74.00 °C.

As to `*CCCCC[Si](*)(C)c1ccccc1` (repeat unit), the glass transition temperature was -10.40 °C. In the case of `*CCCCP(C)(=O)CCCNC(=O)CCCCC(=O)N*` (repeat unit) it was 59.00 °C; in that of `*CCCN(*)C` (repeat unit), -37.50 °C; in that of `*CCCN(C)c1ccc(C(=O)c2ccc(N(*)C)cc2)cc1` (repeat unit), 101.00 °C. The value for `*CCCP(CCCCCCCC)CCCNC(=O)CCCCC(=O)N*` (repeat unit) was 12.00 °C.

With `*CCC[Si](*)(C)CCC[Si](C)(C)C` (repeat unit), the glass transition temperature is -46.00 °C.

The compound `*CCC[Si](*)(C)O[Si](C)(C)CCCOc1ccc(C(=O)Oc2ccc(C#N)cc2)cc1` (repeat unit) showed a glass transition temperature of -19.10 °C. The value for `*CCC[Si](*)(C)c1cccc(C)c1` (repeat unit) was -25.00 °C. The value for `*CCC[Si](*)(c1ccccc1)c1ccc(N(C)C)cc1` (repeat unit) was 52.00 °C; that for `*CCC[Si](C)(C)O[Si](C)(C)CCCN1C(=O)c2ccc(-c3ccc4c(c3)C(=O)N(*)C4=O)cc2C1=O` (repeat unit) was 75.00 °C. Consider `*CC[CH2][Sn]([CH3])([CH3])[CH2]CCOC(=O)C(CCCCCCOc1ccc(-c2ccc(OCc3ccc([N+](=O)[O-])cc3)cc2)cc1)C(=O)O*` (repeat unit), for which the glass transition temperature is 40.50 °C. As for `*CCN(*)C(=O)C(C)C` (repeat unit), the glass transition temperature was determined as 30.00 °C. Compound `*CCN(*)C(=O)C(OC)(c1ccccc1)C(F)(F)F` (repeat unit) returned a glass transition temperature of 89.00 °C. In turn, `*CCN(*)C(=O)C1(c2ccc(Cl)cc2)CCC1` (repeat unit) returned a glass transition temperature of 112.00 °C. The value for `*CCN(*)C(=O)C1CC1` (repeat unit) was 77.00 °C; that for `*CCN(*)C(=O)CCC` (repeat unit) was 42.00 °C; that for `*CCN(*)C(=O)CCCC` (repeat unit) was 13.00 °C. In the case of `*CCN(*)C(=O)c1c(F)cc(F)cc1F` (repeat unit) it was 135.00 °C. In the case of `*CCN(*)C(=O)c1c(F)cccc1F` (repeat unit) it was 121.50 °C.

`*CCN(*)C(=O)c1cc(F)c(F)c(F)c1F` (repeat unit) displayed a glass transition temperature of 97.00 °C. In the case of `*CCN(*)C(=O)c1cc(F)c(F)cc1F` (repeat unit) it was 105.00 °C; in that of `*CCN(*)C(=O)c1ccc(F)cc1` (repeat unit), 104.00 °C. The value for `*CCN(*)C(=O)c1cccc(F)c1` (repeat unit) was 97.00 °C; that for `*CCN(*)C(=O)c1ccccc1F` (repeat unit) was 109.00 °C. In the case of `*CCN(*)CC` (repeat unit) it was -32.00 °C; in that of `*CCN(*)CCOCCOC` (repeat unit), 16.00 °C; in that of `*CCN(*)CC[Si](C)(C)C` (repeat unit), -64.80 °C.

Turning to `*CCN(*)Cc1ccccc1` (repeat unit), the glass transition temperature was -16.00 °C. In turn, `*CCN(C)C(=O)CCCCCCCCC(=O)N(*)C` (repeat unit) came in with a glass transition temperature of 0.00 °C. As to `*CCN(CCOC(=O)NCCCCCCNC(=O)O*)c1ccc(/N=N/c2ccc([N+](=O)[O-])cc2)c(C)c1` (repeat unit), the glass transition temperature came to 75.00 °C. The value for `*CCN(CCOC(=O)Nc1ccc(C)c(NC(=O)O*)c1)c1ccc(/C=C/c2cc[n+](CCCC)cc2)cc1` (repeat unit) was 121.00 °C. `*CCN(CCOC(=O)Nc1ccc(C)c(NC(=O)O*)c1)c1ccc(/N=N/c2ccc(-c3nc4ccc([N+](=O)[O-])cc4n3CC)cc2)cc1` (repeat unit) gave a glass transition temperature of 158.00 °C.

The compound `*CCN(CCOC(=O)Nc1ccc(C)c(NC(=O)O*)c1)c1ccc(/N=N/c2ccc(/N=N/c3cc(OC)c(/N=N/c4ccc([N+](=O)[O-])cc4)cc3OC)c(C)c2)cc1` (repeat unit) yielded a glass transition temperature of 148.00 °C.

Take `*CCN(CCOC(=O)Nc1ccc(C)c(NC(=O)O*)c1)c1ccc(/N=N/c2ccc([N+](=O)[O-])cc2C)cc1` (repeat unit): the glass transition temperature amounted to 137.00 °C.

`*CCN(CCOC(=O)c1cc(OCc2cc(OCc3ccccc3)cc(OCc3ccccc3)c2)cc(C(=O)O*)c1)c1ccc(/C=C/c2ccc(/C=C/C3=C(C#N)C(=C(C#N)C#N)OC3(c3ccccc3)C(F)(F)F)s2)cc1` (repeat unit) gave a glass transition temperature of 130.00 °C. In the case of `*CCN(CCOC(=O)c1ccc(C(=O)O*)c(OC)c1)c1ccc(/N=N/c2ccc(-c3nc4ccc([N+](=O)[O-])cc4n3CC)cc2)cc1` (repeat unit) it was 146.00 °C; in that of `*CCN(CCOC(=O)c1ccc(C(=O)O*)c(OC)c1)c1ccc(/N=N/c2ccc(/C=C/c3nc4ccc([N+](=O)[O-])cc4n3CC)cc2)cc1` (repeat unit), 173.00 °C. The value for `*CCN(CCOC(=O)c1ccc(C(=O)O*)cc1)c1ccc(C=C(C#N)C#N)cc1` (repeat unit) was 127.00 °C; that for `*Nc1ccc(NC(=O)c2cc(NC(=O)c3ccccc3)cc(C(*)=O)c2)cc1` (repeat unit) was 321.00 °C; that for `*Oc1ccc(NC(=O)c2cc(C(=O)Nc3ccc(*)cc3)c(C(=O)OCC)cc2C(=O)OCC)cc1` (repeat unit) was 208.1 °C. The compound `*Oc1ccc(NC(=O)c2cc(C(=O)Nc3ccc(Oc4ccc(C5(c6ccc(*)cc6)CC6CCC5C6)cc4)cc3)cc(C(C)(C)C)c2)cc1` (repeat unit) registered a glass transition temperature of 272.00 °C. Take `*Oc1ccc(NC(=O)c2cc(C(c3ccc(C(=O)O)c(C(=O)Nc4ccc(Oc5ccc(C(c6ccc(*)cc6)(C(F)(F)F)C(F)(F)F)cc5)cc4)c3)(C(F)(F)F)C(F)(F)F)ccc2C(=O)O)cc1` (repeat unit): the glass transition temperature is 260.00 °C.

In turn, `*Oc1ccc(NC(=O)c2cc(NC(=O)CCCCCN3C(=O)c4ccccc4C3=O)cc(C(=O)Nc3ccc(*)cc3)c2)cc1` (repeat unit) yielded a glass transition temperature of 200.00 °C. As to `*Oc1ccc(NC(=O)c2cc(NC(=O)c3ccc(OC(C)=O)cc3)cc(C(=O)Nc3ccc(Oc4ccc(-c5ccc(*)cc5)cc4)cc3)c2)cc1` (repeat unit), the glass transition temperature is 252.00 °C.

On to `*Oc1ccc(S(=O)(=O)N(C)CCCCN(C)S(=O)(=O)c2ccc(Oc3ccc(C(C)(C)c4ccc(*)cc4)cc3)cc2)cc1` (repeat unit), for which the glass transition temperature came to 120.00 °C. The value for `*c1ccc(Oc2ccc(NC(=O)c3cc(NC(=O)c4ccc(OC(C)=O)cc4)cc(C(=O)Nc4ccc(Oc5ccc(-c6nnc(*)o6)cc5)cc4)c3)cc2)cc1` (repeat unit) was 270.00 °C; that for `*c1ncnc(N(CCCCN(*)c2ccccc2)c2ccccc2)n1` (repeat unit) was 91.00 °C.
